Experimental data: patent US9078874B2, “Composition and method for treating cognitive impairments in down syndrom subjects” (Centre National De La Recherche Scientifique—CNRS, priority 2009, dated 2015)

How the values were obtained:
[1] = mainly in urine and in feces; cited from earlier work
mice = assay: Anatomopathology after chronic treatment; assay type: in vivo; details: 5 mg/kg, 5 injections/week for 5 weeks
Protocol: FIG. 8 depicts results from a histological lesion study of α5IA after chronic treatment. Following chronic treatment with α5IA (5 mg/kg; 5 injections/week for 5 weeks), different organs were ablated and processed for routine histopathological examination. […] The same negative findings were observed following Periodic acid-Schiff staining of the tissues (not illustrated). […] The size and distribution of urine crystals (not illustrated) appeared to be very similar in the different groups. The scale bar represents 100 μm.
Mice treated for 2 weeks with α5IA and tested in the elevated plus maze were further treated for another 3 weeks. On the last day of treatment, urine samples were collected 2 hours after α5IA or placebo i.p. administration. Urine was stored at −20° C. before analysis. The day after, mice were injected i.p. with an overdose of sodium pentobarbital. Deeply anaesthetized mice received a PBS flush by means of an intracardiac perfusion. For anatomo-pathological examination, 3 additional euploid non-injected mice were also sacrificed. Liver, kidney, brain and spleen were dissected and fixed in a 10% formalin solution. Tissues were then paraffin-embedded and cut using a microtome (5 μm thick sections) before being processed for routine histopathological evaluation (hematein-eosin and Periodic acid-Schiff stainings).

rats = details: cited from earlier work
euploid and Ts65Dn mice = assay: Novel object recognition (NOR) task; assay type: in vivo
Protocol: The testing protocol is a variant of the testing method according to Fernandez et al. 2007. The Object recognition protocol used to study learning and memory was performed on a 10 minutes period between the first presentation of the objects and the change of one object. Euploid and Ts65Dn mice were tested with or without α5IA treatment. The apparatus consisted of a black square arena (50×50 cm) located in a room under weak controlled luminosity (4-6 Lux) and constant 60 dB white noise. The first day, all mice (16 euploid and 16 Ts65Dn mice) were handled by the experimenter in the animal facility 2×3 min to familiarize them with human contact. On day 2, mice were placed for 20 min in the empty arena for getting used to the apparatus and test room. On day 3, four identical objects were placed symmetrically in the corners of the arena, 14 cm from the side walls. […]
During all open field sessions, mice were monitored using a videotracking system (Any-Maze™). Object exploration was manually scored with an ethological keyboard and defined as the orientation of the nose to the object at a distance<6 cm. […]
For the retention phase, the percent of time exploring familiar vs. novel objects was calculated to assess memory performance (a score of 50% corresponding to equal exploration times of the two objects indicated no object memory). […]
Discrimination ratio was calculated using the formula: […]

[2] = test system: young and elderly subjects; details: cited from earlier work
[3] = test system: GABAA receptors containing either an α1, α2, α3 or α5 subunit; details: cited from earlier work

Cc1cc(-c2nnc3c4ccccc4c(OCc4cn(C)nn4)nn23)no1 [α5IA, 3-(5-methylisoxazol-3-yl)-6-[(1-methyl-1,2,3-triazol-4-yl)methyloxy]-1,2,4-triazolo[3,4-a]phthalazine]
metabolism [1]: exclusively metabolized into the hydroxymethyl isoxazol metabolite M1 | abnormal crystals in brain, hepatic and renal tissues under polarized light (mice): lack of abnormal crystals | histological lesions (mice; liver, kidney, brain): did not induce any histological lesions | cognitive performance in variant of the Morris water maze task (rats; rat, in vivo): enhance cognitive performance | effective promnesiant dose in the MWM test (rats; rats): 3 mg/kg | object recognition performance compared to wild-type mice receiving a placebo (euploid and Ts65Dn mice; Ts65Dn mice): above-normal object recognition performance | recognition performance (euploid and Ts65Dn mice; i.p. 5 mg/kg, 30 min before acquisition, both euploid and Ts65Dn mice): largely improved their recognition performance | tolerability [2]: well tolerated | binding affinity at the benzodiazepine binding site [3]: equal affinity
